According to the NIST ThermoML archive (doi:10.1021/je800637t):
± gives the expanded uncertainty stated by the source.

Columns and labels:
[1] = mn = molality of the nth substance listed, in mol/kg; conditions: 100.8 kPa, Liquid; for viscosity: Cone and plate viscometry; for electrical conductivity: Kyoto model CM-117 conductivity meter; for mass density: Vibrating tube method
[2] = refractive index (Na D-line) (dimensionless); mn = molality of the nth substance listed, in mol/kg; conditions: 100.8 kPa, Liquid, Standard Abbe refractometry

O=[N+]([O-])[O-].[K+] [potassium nitrate] + O
Conditions | electrical conductivity, [1] [S/m] | mass density, [1] [kg/m3] | refractive index, [2] | viscosity, [1] [mPa·s]
298.15 K, m1 = 0.3799 | 0.000381 ± 5e-06 | 1020.03 ± 0.09 | 1.33593 ± 0.0004 | 0.879 ± 0.008
298.15 K, m1 = 0.76 | 0.000705 ± 8e-06 | 1041.91 ± 0.06 | 1.33907 ± 0.0004 | 0.87 ± 0.011
298.15 K, m1 = 1.14 | 0.000985 ± 1.2e-05 | 1062.91 ± 0.08 | 1.34205 ± 0.0004 | 0.869 ± 0.008
298.15 K, m1 = 1.52 | 0.00122 ± 1.5e-05 | 1083.04 ± 0.12 | 1.34488 ± 0.0004 | 0.872 ± 0.012
298.15 K, m1 = 1.9 | 0.00144 ± 1.7e-05 | 1102.4 ± 0.12 | 1.34751 ± 0.0004 | 0.881 ± 0.008
298.15 K, m1 = 2.28 | 0.00162 ± 1.9e-05 | 1121.03 ± 0.09 | 1.35009 ± 0.0004 | 0.889 ± 0.008
298.15 K, m1 = 2.66 | 0.00179 ± 2.1e-05 | 1139.02 ± 0.1 | 1.35253 ± 0.0004 | 0.901 ± 0.011
298.15 K, m1 = 3.04 | 0.00194 ± 2.3e-05 | 1156.32 ± 0.13 | 1.35479 ± 0.0004 | 0.914 ± 0.014
298.15 K, m1 = 3.42 | 0.00211 ± 2.5e-05 | 1173.06 ± 0.12 | 1.35704 ± 0.0004 | 0.931 ± 0.008
298.15 K, m1 = 3.821 | 0.00223 ± 2.7e-05 | 1189.24 ± 0.13 | 1.35915 ± 0.0004 | 0.95 ± 0.009
313.15 K, m1 = 0.3799 | 0.000528 ± 6e-06 | 1014.52 ± 0.07 | 1.33384 ± 0.0004 | 0.652 ± 0.01
313.15 K, m1 = 0.76 | 0.000954 ± 1.1e-05 | 1035.85 ± 0.05 | 1.33687 ± 0.0004 | 0.654 ± 0.007
313.15 K, m1 = 1.14 | 0.00129 ± 1.5e-05 | 1056.36 ± 0.1 | 1.33975 ± 0.0004 | 0.657 ± 0.008
313.15 K, m1 = 1.52 | 0.00159 ± 1.9e-05 | 1076.08 ± 0.07 | 1.34248 ± 0.0004 | 0.665 ± 0.012
313.15 K, m1 = 1.9 | 0.00184 ± 2.2e-05 | 1095.07 ± 0.09 | 1.345 ± 0.0004 | 0.673 ± 0.008
313.15 K, m1 = 2.28 | 0.00208 ± 2.5e-05 | 1113.37 ± 0.13 | 1.34761 ± 0.0004 | 0.682 ± 0.009
313.15 K, m1 = 2.66 | 0.00227 ± 2.7e-05 | 1131.04 ± 0.1 | 1.34991 ± 0.0004 | 0.693 ± 0.01
313.15 K, m1 = 3.04 | 0.00248 ± 3e-05 | 1148.05 ± 0.13 | 1.35227 ± 0.0004 | 0.703 ± 0.008
313.15 K, m1 = 3.42 | 0.00263 ± 3.2e-05 | 1164.53 ± 0.15 | 1.35443 ± 0.0004 | 0.716 ± 0.01
313.15 K, m1 = 3.8 | 0.00278 ± 3.3e-05 | 1180.49 ± 0.12 | 1.35643 ± 0.0004 | 0.733 ± 0.014
313.15 K, m1 = 4.581 | 0.00308 ± 3.7e-05 | 1211.11 ± 0.15 | 1.36051 ± 0.00041 | 0.76 ± 0.008
313.15 K, m1 = 5.341 | 0.0033 ± 4e-05 | 1239.46 ± 0.18 | 1.36426 ± 0.00041 | 0.803 ± 0.009
313.15 K, m1 = 6.273 | 0.00357 ± 4.3e-05 | 1271.3 ± 0.2 | 1.36812 ± 0.00041 | 0.844 ± 0.011
